Results from patent US10450258B2, “Substituted aromatic compounds for the treatment of pulmonary fibrosis, liver fibrosis, skin fibrosis and cardiac fibrosis” (PROMETIC PHARMA SMT LIMITED, priority 2013, dated 2019).
Entries after “also recorded” stand apart in the source; their conditions may differ.

How the values were obtained:
[1] = tested on: α-SMA mRNA in NHDF cells; experiment: Inhibition of α-SMA mRNA in TGF-β-activated NHDF fibroblasts; type: cell-based; conditions: Homo sapiens, compound 0.5 mM
Protocol: (§1) CTGF, collagen 1 and α-SMA are fibrotic markers produced by activated fibroblasts and by epithelial cells that undergo to epithelial-mesenchymal transition (EMT).
(§2) Table 2: Percentage of inhibition of collagen in epithelial cells (HK2 cells) and fibroblasts (NHDF) and percentage of inhibition of α-SMA in fibroblasts (NRK-49F and NHDF) has been determined for several compounds according the invention. In all cases, the mRNA of collagen and α-SMA has been measured, and the inhibition was evaluated in presence of a respective concentration of the tested compound. The compounds have been tested at different concentrations [mM]. All compounds reduce the expression of collagen and α-SMA in HK-2, NHDF and NRK-49F cells.

[2] = tested on: collagen 1 mRNA in HK-2 cells (epithelial cells); experiment: Inhibition of collagen mRNA in TGF-β-treated HK-2 epithelial cells; type: cell-based; conditions: Homo sapiens, HK-2, compound 0.5 mM
Protocol: as §1, §2

[3] = tested on: TGF-β, CTGF, IL-23p19, IL-6, collagen 1, fibronectin (FN-1), collagen 3 mRNA in lung tissue; experiment: Real-time PCR of inflammatory and fibrotic marker mRNA in lung tissue, bleomycin-induced pulmonary fibrosis mouse model; type: in vivo, mouse (male C57BL6)
Protocol: Male C57BL6 mice are administered intratracheal instillation of bleomycin sulphate (0.025 U) at day 0, randomized and administered Compound I (oral administration, 100 mg/kg and 200 mg/kg) on day 7 to day 20.
Further analysis of the lung tissue was undertaken. CTGF, collagen 1 and IL-23p19 mRNA expression was quantified by real-time PCR.
It was therefore evaluated side-by-side with Compound I in the bleomycin-induced pulmonary fibrosis mouse model by the same protocol described in Example 4 above. Compound I (200 mg/kg) and pirfenidone (400 mg/kg) were orally administered either alone or in combination.
In order to determine the effect of Compound I on pulmonary fibrosis, further analysis of the lung tissue was undertaken. TGF-β, CTGF, IL-23 and IL-6 mRNA expression was quantified by real-time PCR. […] Oral administration of pirfenidone had no effect on CTGF mRNA expression but decreased TGF-β, IL-23 and IL-6 mRNA expression. […]

[4] = tested on: CCl4-induced liver fibrosis mouse model; experiment: CCl4-induced liver fibrosis mouse model; type: in vivo, mouse (male C57BL/6)
Description: Hepatic fibrosis is an outcome of many chronic liver diseases, including hepatitis B virus, hepatitis C virus, alcoholic liver disease, non-alcoholic steatohepatitis and diverse chronic intoxication. It was thus desired to evaluate the effect of Compound I on murine CCl4-induced liver fibrosis. Intoxication with CCl4 results in hepatocyte damage, necrosis, inflammation, and fibrosis, which spreads to link the vascular structures that feed into and drain the hepatic sinusoid (the portal tract and central vein radical, respectively), and over 8-30 weeks results in the development of fibrosis to hepatocellular carcinoma. Therefore, evaluation of candidate antifibrotic drugs such as Compound I can be undertaken by treatment of the mice at appropriate time points and histologic, biochemical and cellular readouts may be used to monitor candidate drug efficacy in this model.
CCl4 (10% in corn oil, 2 ml/kg) was intraperitoneally injected twice a week for 16 weeks in male C57BL/6. Compound I (200 mg/kg) was orally administered every day from day 1 to day 113. Mice were euthanasized and histology and liver fibrotic markers were analyzed.
To determine if Compound I has an effect on liver fibrosis, hydroxyproline level was used to measure the collagen content in the tissue, which is indicative of liver fibrosis.
The reduction of collagen level in liver tissue was also observed in histological micrographs using the Masson's Trichrome staining.
The Masson's trichrome stain the cytoplasm, keratin, muscle fibers and intracellular fibers in red colour; nuclei in black colour and collagen (fibrous tissue) in blue color.
Another experiment has been performed with Compound 1 and Compound V where CCL4 (10% in olive oil, 2 ml/kg) was intraperitoneally injected twice a week for 8 weeks in male C57BL/6. Compound 1 and compound V were orally administered (100 and 200 mg/kg) every day from day 1 to day 58. Mice were euthanasized and collagen content (marker of fibrosis) in the liver was quantified by histomorphometry using Masson's trichrome staining.

[5] = tested on: normal human dermal fibroblasts (NHDF); experiment: Scratch assay (migration and invasion) of EGF-stimulated NHDF; type: cell-based; conditions: mitomycin-treated NHDF, compound 0.5 mM, FIG. 26
Protocol: The next experiments (scratch assay, invasion/migration) were designed to determine the effect of Compound I on EGF-stimulated normal human dermal fibroblasts (NHDF). In summary, mitomycin-treated NHDF were stimulated with EGF and incubated in the presence or absence (control) of Compound I (0.5 mM). EGF stimulated fibroblast invasion into the scratch which is inhibited by Compound I (FIG. 26).

[6] = tested on: α-SMA mRNA in NRK-49F cells; experiment: Inhibition of α-SMA mRNA in TGF-β-activated NRK-49F fibroblasts; type: cell-based, rat; conditions: Rattus norvegicus, NRK-49F, compound 0.5 mM
Protocol: as §1, §2

[7] = tested on: normal human dermal fibroblasts (NHDF); experiment: TGF-β-induced and basal CTGF, collagen 1 and α-SMA transcript expression in NHDF (quantitative real-time PCR); type: cell-based
Protocol: The effect of Compound of the invention on skin fibrosis was studied using normal human dermal fibroblasts (NHDF).
In vitro analysis was undertaken to determine the effect of Compound I on TGF-β-induced CTGF, collagen 1 and α-SMA (markers of fibrosis) on normal human dermal fibroblasts (NHDF). Expression of the profibrotic (CTGF) and fibrotic markers (collagen 1 and α-SMA) were determined by quantitative real-time PCR.
Myofibroblasts are terminally differentiated cells derived from fibroblasts, epithelial and mesenchymal stem/stromal (fibrocytes) cells that play an important role in tissue fibrosis via increased matrix synthesis such as collagen. α-SMA is a well-known marker of myofibroblast.

**Q.** What does the source list for `CCCCCc1cccc(CC(=O)[O-])c1.[Na+]` [Compound I, Sodium Salt of 3-pentylphenylacetic acid]?
**A.** inhibition at 500 µM [1]: 99%; inhibition at 500 µM [2]: 86%; CTGF mRNA expression in lungs ([3]; oral 100 and 200 mg/kg, Example 21, FIG. 4): significantly decreased the expression; IL-23p19 mRNA expression in lungs ([3]; oral 100 and 200 mg/kg, Example 21, FIG. 5): significantly decreased the expression; collagen 1 mRNA expression in lungs ([3]; oral 100 and 200 mg/kg, Example 21, FIG. 6): significantly decreased the expression; TGF-β mRNA expression in lungs ([3]; oral, Compound I 200 mg/kg, pirfenidone 400 mg/kg, alone or combined, FIG. 12): significantly decreased the expression; CTGF mRNA expression in lungs ([3]; oral, Compound I 200 mg/kg, pirfenidone 400 mg/kg, alone or combined, FIG. 13): significantly decreased the expression; IL-23 mRNA expression in lungs ([3]; oral, Compound I 200 mg/kg, pirfenidone 400 mg/kg, alone or combined, FIG. 14): significantly decreased the expression; IL-6 mRNA expression in lungs ([3]; oral, Compound I 200 mg/kg, pirfenidone 400 mg/kg, alone or combined, FIG. 15): significantly decreased the expression; collagen 3 mRNA expression in lungs ([3]; oral, Compound I 200 mg/kg, pirfenidone 400 mg/kg, alone or combined, FIG. 18): weak reduction; collagen 1 mRNA expression in lungs ([3]; oral, Compound I 200 mg/kg, pirfenidone 400 mg/kg, alone or combined, reduction to the control level, FIG. 16): significant reduction; fibronectin (FN-1) mRNA expression in lungs ([3]; oral, Compound I 200 mg/kg, pirfenidone 400 mg/kg, alone or combined, reduction to the control level, FIG. 17): significant reduction; collagen score in liver (Masson's Trichrome staining) ([4]; CCl4 16 weeks, oral 200 mg/kg daily, FIG. 20): significant reduction; collagen deposition and bridging formation in liver (photomicrographs) ([4]; CCl4 16 weeks, oral 200 mg/kg daily, FIG. 21): significant reduction of collagen deposition and bridging formation; collagen content in liver (histomorphometry, Masson's trichrome) ([4]; CCl4 twice a week for 8 weeks, oral 100 and 200 mg/kg every day, day 1 to day 58, FIG. 22): significant reduction; hydroxyproline level in liver ([4]; CCl4 twice a week for 16 weeks, oral 200 mg/kg every day, day 1 to day 113, FIG. 19): significant reduction; EGF-stimulated fibroblast migration and invasion into the scratch [5]: reduction of the migration and invasion; also recorded: inhibited; inhibition at 500 µM [6]: 85%; TGF-β-induced CTGF transcript expression ([7]; TGF-β 5 ng/ml, compound 500 μM, FIG. 23): inhibited; TGF-β-induced collagen 1 transcript expression ([7]; TGF-β 5 ng/ml, compound 500 μM, FIG. 24): inhibited; TGF-β-induced α-SMA transcript expression ([7]; TGF-β 5 ng/ml, compound 500 μM, FIG. 25): inhibited; inhibition of α-SMA in TGF-β induced fibroblasts ([7]; TGF-β induced): 90%; basal expression of CTGF ([7]; compound alone (0.5 mM), no TGF-β, FIG. 23): decreased basal expression; basal expression of collagen 1 ([7]; compound alone (0.5 mM), no TGF-β, FIG. 24): decreased basal expression; basal expression of α-SMA ([7]; compound alone (0.5 mM), no TGF-β, FIG. 25): decreased basal expression
